The subject of assay [1] is Pseudomonas aeruginosa. Nature of the assay: Antimicrobial activity against Pseudomonas aeruginosa relative to peptide Bac2A RLARIVVIRVAR sequence.
The test system of assay [2] is Pseudomonas aeruginosa. Nature of the assay: antimicrobial activity against Pseudomonas aeruginosa.
In assay [3] the target is Angiotensin-converting enzyme (Homo sapiens) (UniProt P12821). In words: Inhibition of ACE (unknown origin). Set-up: unit not given here.

Usually pIC50 stands for −log10 of the IC50, conventionally taken in molar units.

Sequence of Angiotensin-converting enzyme (Homo sapiens) (P12821 whole entry): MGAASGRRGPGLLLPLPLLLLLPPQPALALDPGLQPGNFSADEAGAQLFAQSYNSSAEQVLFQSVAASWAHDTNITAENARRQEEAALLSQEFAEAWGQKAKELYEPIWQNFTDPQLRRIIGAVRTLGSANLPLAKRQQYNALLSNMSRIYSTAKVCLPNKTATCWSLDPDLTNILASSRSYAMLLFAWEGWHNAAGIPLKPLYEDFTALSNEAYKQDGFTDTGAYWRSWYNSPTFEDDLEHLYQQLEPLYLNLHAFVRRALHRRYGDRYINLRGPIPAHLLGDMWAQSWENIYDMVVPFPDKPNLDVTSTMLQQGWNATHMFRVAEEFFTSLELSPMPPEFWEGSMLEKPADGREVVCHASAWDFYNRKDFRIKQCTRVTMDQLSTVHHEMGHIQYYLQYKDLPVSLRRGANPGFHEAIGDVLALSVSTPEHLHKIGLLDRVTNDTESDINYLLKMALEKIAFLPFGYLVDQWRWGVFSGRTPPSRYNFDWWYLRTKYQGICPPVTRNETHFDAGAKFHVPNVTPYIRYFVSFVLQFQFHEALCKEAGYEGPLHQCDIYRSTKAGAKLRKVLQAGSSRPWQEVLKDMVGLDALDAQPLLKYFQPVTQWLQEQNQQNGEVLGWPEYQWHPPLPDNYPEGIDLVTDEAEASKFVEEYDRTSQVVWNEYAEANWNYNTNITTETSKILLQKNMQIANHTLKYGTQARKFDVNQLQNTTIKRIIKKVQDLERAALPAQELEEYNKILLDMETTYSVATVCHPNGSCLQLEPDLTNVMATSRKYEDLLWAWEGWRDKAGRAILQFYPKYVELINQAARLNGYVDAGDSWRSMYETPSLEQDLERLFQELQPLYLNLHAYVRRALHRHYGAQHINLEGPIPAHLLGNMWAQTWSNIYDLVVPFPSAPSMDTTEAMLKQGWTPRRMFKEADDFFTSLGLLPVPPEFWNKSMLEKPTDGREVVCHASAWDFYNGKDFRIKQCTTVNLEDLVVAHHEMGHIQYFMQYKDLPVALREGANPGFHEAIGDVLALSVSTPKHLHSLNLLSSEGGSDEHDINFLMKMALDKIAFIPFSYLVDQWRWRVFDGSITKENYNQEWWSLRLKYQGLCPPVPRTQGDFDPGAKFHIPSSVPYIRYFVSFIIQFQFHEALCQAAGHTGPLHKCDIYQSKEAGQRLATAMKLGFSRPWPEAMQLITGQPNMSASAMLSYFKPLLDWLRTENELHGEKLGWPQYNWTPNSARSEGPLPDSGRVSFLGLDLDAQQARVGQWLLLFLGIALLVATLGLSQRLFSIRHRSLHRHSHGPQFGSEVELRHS

For the compound `N=C(N)NCCC[C@H](NC(=O)[C@H](CCCCN)NC(=O)[C@H](CCCNC(=N)N)NC(=O)[C@@H](N)CCCNC(=N)N)C(=O)N[C@@H](Cc1c[nH]c2ccccc12)C(=O)N[C@@H](Cc1c[nH]c2ccccc12)C(=O)N[C@@H](Cc1c[nH]c2ccccc12)C(=O)N[C@@H](Cc1c[nH]c2ccccc12)C(=O)N[C@@H](Cc1c[nH]c2ccccc12)C(=O)O`, the Ratio IC50 in the assay with Pseudomonas aeruginosa [1] was 0.43. In the assay with Pseudomonas aeruginosa [2], this compound gave a pIC50 of 6.37. Turning to `N=C(N)NCCC[C@H](NC(=O)[C@H](CCCNC(=N)N)NC(=O)[C@@H](N)CCCNC(=N)N)C(=O)N[C@@H](Cc1c[nH]c2ccccc12)C(=O)N[C@@H](Cc1c[nH]c2ccccc12)C(=O)N[C@@H](Cc1c[nH]c2ccccc12)C(=O)N[C@@H](Cc1c[nH]c2ccccc12)C(=O)N[C@@H](Cc1c[nH]c2ccccc12)C(=O)N[C@@H](Cc1c[nH]c2ccccc12)C(=O)O`, the Ratio IC50 with Pseudomonas aeruginosa [1] was 1.82. This compound came in with a pIC50 with Pseudomonas aeruginosa [2] of 5.74.

Turning to H-IRRRKWWWW-OH, the Ratio IC50 in the assay with Pseudomonas aeruginosa [1] worked out at 0.21. In the assay on Pseudomonas aeruginosa [2], the pIC50 came to 6.68. The corresponding values for H-IRRRWWWIV-OH are 0.23 and 6.64. With H-KKRWLWWWR-OH, the Ratio IC50 in the assay on Pseudomonas aeruginosa [1] stood at 0.3. For the same compound, the pIC50 with Pseudomonas aeruginosa [2] is 6.52. In the same order, the values of H-KRKIWWWIR-OH are 0.28 and 6.55. In the same order, the values of H-KRRRIWWWK-OH are 0.4 and 6.4. As to H-KRWWKWWRR-OH, the Ratio IC50 in the assay on Pseudomonas aeruginosa [1] is 0.13. Besides, the pIC50 in the assay with Pseudomonas aeruginosa [2] stood at 6.89. As to H-KRWWWWWKR-OH, the Ratio IC50 in the assay on Pseudomonas aeruginosa [1] was 0.22. Besides, the pIC50 in the assay on Pseudomonas aeruginosa [2] is 6.66.

For the compound H-KWWKIWWKR-OH, the Ratio IC50 in the assay with Pseudomonas aeruginosa [1] amounted to 0.2. Further, the pIC50 in the assay on Pseudomonas aeruginosa [2] was 6.7. Turning to H-LALPP-OH, the logIC50 in assay [3] is 2.9.

On to H-LAYFYP-OH, for which the logIC50 in assay [3] was 1.81.

The compound H-LHLPAP-OH returned a logIC50 in assay [3] of 0.78. Compound H-LHLPGP-OH displayed a logIC50 in assay [3] of 0.28.

H-LHLPLP-OH displayed a logIC50 in assay [3] of 0.57. Compound H-LHLPYP-OH came in with a logIC50 in assay [3] of 0.36. Still for that read-out and setting: as for H-LHLWLP-OH, the figure is 0.95; as for H-LHLYLP-OH, 1.28.

On to H-LRFILWWKR-OH, for which, in the assay on Pseudomonas aeruginosa [1], the Ratio IC50 worked out at 0.88. This compound also gave a pIC50 in the assay with Pseudomonas aeruginosa [2] of 6.06.

For H-PQPIP-OH, in assay [3], the logIC50 is 2.53.

Turning to H-PVPQP-OH, the logIC50 in assay [3] came to 2.04. Consider H-PVVVPP-OH, for which the logIC50 in assay [3] was 2.07. As for H-RHWKTWWKR-OH, the Ratio IC50 in the assay on Pseudomonas aeruginosa [1] is 0.95. In the assay with Pseudomonas aeruginosa [2], this compound registered a pIC50 of 6.02. In the case of H-RIKRWWWWR-OH, the Ratio IC50 in the assay with Pseudomonas aeruginosa [1] was found to be 0.31. The pIC50 in the assay with Pseudomonas aeruginosa [2] came to 6.51. As to H-RIKVIWWWR-OH, in the assay on Pseudomonas aeruginosa [1], the Ratio IC50 came to 0.51. In addition, the pIC50 in the assay with Pseudomonas aeruginosa [2] amounted to 6.29. On to H-RKRLKWWIY-OH, for which the Ratio IC50 in the assay with Pseudomonas aeruginosa [1] was found to be 0.18. For the same compound, the pIC50 in the assay on Pseudomonas aeruginosa [2] is 6.74.

As to H-RKWWRWWRW-OH, the Ratio IC50 with Pseudomonas aeruginosa [1] was determined as 0.31. This compound showed a pIC50 in the assay with Pseudomonas aeruginosa [2] of 6.51.

Take H-RPQIPP-OH: the logIC50 in assay [3] amounted to 1.66.

Regarding H-RRIWRWWWW-OH, the Ratio IC50 in the assay with Pseudomonas aeruginosa [1] is 0.68. The pIC50 in the assay with Pseudomonas aeruginosa [2] amounted to 6.17. Take H-RWILWWWRI-OH: the Ratio IC50 in the assay on Pseudomonas aeruginosa [1] was 25. The pIC50 in the assay on Pseudomonas aeruginosa [2] is 4.6.

Turning to H-RWRRKWWWW-OH, the Ratio IC50 in the assay on Pseudomonas aeruginosa [1] turned out to be 0.39. In the assay on Pseudomonas aeruginosa [2], this compound registered a negative-log IC50 (pIC50) of 6.41.

Consider H-RWWRKWWIR-OH, for which, in the assay with Pseudomonas aeruginosa [1], the Ratio IC50 was 0.24. In the assay with Pseudomonas aeruginosa [2], this compound returned a pIC50 of 6.62. In assay [3], H-SKVPP-OH returned a logIC50 of 1.87. In assay [3], H-TKVIP-OH showed a logIC50 of 2.6. As for H-TRKVWWWRW-OH, the Ratio IC50 with Pseudomonas aeruginosa [1] turned out to be 0.76. The compound further showed a pIC50 in the assay on Pseudomonas aeruginosa [2] of 6.12. The compound H-VHLAP-OH displayed a logIC50 in assay [3] of 0.65. The compound H-VHLPP-OH gave a logIC50 in assay [3] of 1.26. As for H-VIEKYP-OH, the logIC50 in assay [3] worked out at 2.24. Compound H-VLIVP-OH came in with a logIC50 in assay [3] of 2.23. H-VLPIP-OH had a logIC50 in assay [3] of 1.49. For the compound H-VLPYP-OH, in assay [3], the logIC50 was found to be 1.56. In turn, H-VRGPFP-OH registered a logIC50 in assay [3] of 2.77.

H-WHGVRWWKW-OH: the Ratio IC50 in the assay on Pseudomonas aeruginosa [1] turned out to be 2.5. This compound gave a pIC50 in the assay on Pseudomonas aeruginosa [2] of 5.6. Turning to H-WKRWKWWKR-OH, in the assay with Pseudomonas aeruginosa [1], the Ratio IC50 was 0.25. For the same compound, in the assay on Pseudomonas aeruginosa [2], the pIC50 was found to be 6.6.

With H-WRWWKWWRR-OH, the Ratio IC50 with Pseudomonas aeruginosa [1] stood at 0.23. For the same compound, the pIC50 in the assay with Pseudomonas aeruginosa [2] amounted to 6.64.

The values above are taken from ChEMBL document CHEMBL3352520, “CoMFA and CoMSIA analysis of ACE-inhibitory, antimicrobial and bitter-tasting peptides” (Eur J Med Chem, 2014).
